Results on 1 molecule are retold here after patent US11077052B1, “Selected multi-phase treatment for coronavirus respiratory infections” (priority 2020, dated 2021).

Assay type in all cases: in vivo, human
Test [1] relates to SARS-CoV-2. The experiment in a line: Nasal irrigation with the Example 1 composition in people during the COVID-19 pandemic, judged by symptoms. As to conditions: added to the Example 1 composition.
Test [2] deals with SARS-CoV-2. Description: Inhalation of the smelling salt by patients during the COVID-19 pandemic. As to conditions: liquid CBD added. As for the experimental part: In another formula, in addition to the herbal infused alcohols and concentrated herbal extracts, liquid CBD was also added. […] Apparently, CBD has synergistic effect with the probiotic produced volatile therapeutic compounds. Towards the end of preparation, the multiple strain probiotics along with their bio-active peptides and volatile therapeutic growth end products were add to the formula. The above prepared formulas were placed in a plastic or glass container with a tight closure or in a cartridge with screw type closure. Prior to inhalation, the cap is removed and, using one nostril at a time, it is inhaled deeply to reach the bottom of each and every alveoli of the lung. Conversely, the composition can also be applied using a standard nebulizer with proper liquefaction of the ingredients using a suitable solvent such as water.
The preparation was tried on patients of all age groups and genders ranging from 5 years to 75 years. They were asked to inhale once in the morning and once in the evening if they are at home or office. If they have to go to public places or a crowded place, they were asked to inhale before and after visiting the place. […]
In addition to the ingredients listed in Table 3, further testing evaluated the addition of a minimal amount of ammonium carbonate. In another composition, sodium hypochlorite has been replaced by a minimal quantity of liquid chloroform. […]

Test [3] relates to SARS-CoV-2. The experiment in a line: Oral probiotics liposome in test subjects and COVID-19 patients. As to conditions: acute cases of COVID-19. From the text:
Recommended daily dosages for the above prepared liquid antioxidant liposome are one dose of 1 ounce or two doses of one-half ounce each. This preparation was given to several test subjects of all ages who were monitored for coronavirus infection over a period of 5.5 months during the coronavirus pandemic period (February through middle of August 2020). […] In addition, the above preparation was given to a patient who had been infected with COVID-19. This patient recovered quickly, within one to two weeks.
The liposome also was evaluated with variations of ingredients to identify which appeared to provide the better effectiveness. The standard for comparison had the liposome prepared with, herbal extracts, CBD, ascorbic acid, sodium bicarbonate, and sodium ascorbate. However, the probiotics were not included. A first test version had the liposome prepared with ascorbic acid and herbal extracts only, without sodium ascorbate, sodium bicarbonate, CBD, and probiotics. A second test version had the liposome prepared with concentrated herbal extracts of clove, turmeric, and basil in combination with ascorbic acid and sodium ascorbate along with multiple probiotics strain, but without inclusion of their all other immunomodulins and growth end products. […]

On to `C=C(C)[C@@H]1CCC(C)=C[C@H]1c1c(O)cc(CCCCC)cc1O` [CBD, Cannabidiol], for which, in test [1], the “effect of inclusion in the nasal irrigation formulation” value was “significantly improved the nasal clearance”. Also, in test [2], the “effect of addition on efficacy of the inhaling smelling salt” value is given as “significantly improved the efficacy”. Also, the “effect of CBD in the liposome on recovery” value in test [3] is on record as “significantly improved the recovery”.
